Experimental data: patent US20140273210A1, “HIGH […] […] FOR CELL CULTURES AND APPLICATIONS THEREOF” (Board Of Regents, The University Of Texas System, priority 2013, published 2014)

Tested on: vascular smooth muscle cells
Test: LDH release cytotoxicity assay with or without cyclic mechanical strain
Conditions: 10 nM mithramycin, 24 hours
Procedure: A colorimetric cytotoxicity assay was used assess the presence of cell death during mechanical loading/drug treatment (Promega). This assay measures release of lactate dehydrogenase (LDH) activity and was used according to the manufactures directions. Mechanical stretch to cells in culture using the various waveforms were applied to cell culture. To confirm the biocompatibility of the cells in the system, cell death was measured through an LDH release assay. The maximal strain of 5% was set to be identical between the groups. After 4 hours of mechanical loading the cytotoxicity of the mechanical load was used using a LDH release assay.
Toxicity testing in the presence of mechanical load. Toxicity of chemotherapeutic drug mithramycin is tested in the presence or absence of mechanical strain. Specifically, cyclic mechanical load of 5% maximal strain was applied to vascular smooth muscle cells in the presence or absence of 10 nM mithramycin for 24 hours. Experiments of vascular smooth muscle cells in the presence or absence of 10 nM mithramycin without mechanical strains were also performed for comparison during the same time period. Release of lactate dehydrogenase (LDH) was measured as indication of cell death and the results were plotted in FIG. 11.

mithramycin
Release of lactate dehydrogenase (LDH) compared to control cells (absence of mechanical strain): about the same | Increase in LDH release from the cells compared to the control (cyclic mechanical load of 5% maximal strain): four folds increase
